Experimental findings from PMC8752837, “Structural basis of BAK activation in mitochondrial apoptosis initiation” (Nature Communications, 2022) are described below.

For assay [1], the system named is bak−/− bax−/− HCT116 cells. In words: Apoptosis initiated by actinomycin D and TRAIL + CHX in cells constitutively expressing BAK. As to conditions: AUC of SYTOX Green +ve counts/confluence, 0-48 hr, n = 3. It is filed as cell-based, human. An excerpt:
We enriched for GFP positive cell populations by up to four rounds of sorting. Cells were used in apoptosis assays. […]
and doxycycline (Dox)-inducible mC-BAK. d, Representative i mmunoblot for BID and sypro red staining of BCL2allKO HCT116 cells expressing V74A and D83A mC-BAK and BID from n=2 independent experiments. e, Representative immunoblot of bak-/- bax- […]
from n=2 independent experiments . GFP positive cells were sorted three and four times to achieve similar expression levels. […]
human TRAIL and cycloheximide (CHX).
Data are presented as mean + SD for one representative of n=2 experiments each of n=3 technical replicates. g, Experimental […]
BAK (mC-BAK) monitored for 48 hr by IncuCyte imaging uptake of cell-impermeable dye SYTOX Green. AUC for kinetic traces is included. At 48 hr, we quantified percentage of SYTOX Green +ve cells (%) by fluorescence activated cell sorting (FACS). Data are presented as mean + SD from one of n=3 experiments each of n=3

For another assay, the target named is T1, Human BAK-∆TM-His6 (BAK) (Homo sapiens, UniProt Q16611).
T1 construct: C-terminus truncated recombinant human BAK containing C-terminal 6× histidine tag (MEAS-BAK); made in house; host or cells: E. coli T7 Express pLac I/Y
T1 sequence (Q16611 1-186 limits assumed): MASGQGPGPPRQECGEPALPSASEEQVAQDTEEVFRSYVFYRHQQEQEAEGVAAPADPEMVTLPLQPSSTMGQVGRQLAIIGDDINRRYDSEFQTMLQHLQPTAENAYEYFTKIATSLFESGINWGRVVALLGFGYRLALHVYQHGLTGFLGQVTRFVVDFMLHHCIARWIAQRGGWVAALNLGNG
In words: Liposome permeabilization assay (ANTS/DPX dye release from LUVs): activation of WT BAK by BH3 peptides.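 On AUC for Experiment-2 (Mean): traces normalized between buffer minimum and 3% CHAPS maximum fluorescence.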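 On AUC for Experiment-3 (Mean): traces normalized between buffer minimum and 3% CHAPS maximum fluorescence.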 In kind it is biochemical. Also on record: AUC for Experiment-2 (Mean) / AUC for Experiment-3 (Mean) / AUC for Experiment-1 (Mean):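 traces normalized between buffer minimum and 3% CHAPS maximum fluorescence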. As to conditions: for AUC for Experiment-1 (Mean) / AUC for Experiment-2 (Mean) / AUC for Experiment-3 (Mean): AUC 0-88 mins of liposome permeabilization; for AUC for Experiment-1 (Mean): Experiment-1, mean of N replicates; for AUC for Experiment-2 (Mean): Experiment-2, mean of N replicates; for AUC for Experiment-3 (Mean): Experiment-3, mean of N replicates; for EC50: Fig. 4e, AUC vs peptide dose (Suppl. Fig. 6b), n = 2 experiments each of n = 3 technical replicates, read-out: EC50 LP; for EC50 / direct BAK activation compared to WT BID BH3: 50 nM BAK; for direct BAK activation compared to WT BID BH3: liposome permeabilization, Fig. 4c, e. On the procedure:
We performed liposome permeabilization assays as previously described[43]–[46]. […] We mixed the lipid film in ANTS/DPX solution by vortexing and sonication (~15 min) followed by extrusion through polycarbonate membrane of 2 μm pore size (Avanti Polar lipids) to generate homogenous large unilamellar vesicles (LUVs). We separated LUVs from free ANTS/DPX by S500 size exclusion chromatography and stored them at 4 °C in the dark. We prepared peptide and protein dilutions in 96-well black flat bottom plates (Costar) kept on ice. […] We quantified liposome permabilization by integrating area under curve (AUC) of normalized traces based on the Simpson’s equation, and analyzed that data in Excel and GraphPad Prism. AUC measurements reflect the kinetic and extent of liposome permeabilization and provide quantitative means for comparison between different experimental conditions (e.g., BAK mutants with gross or partial variation in activity).

The target in another assay is T2, GST-BAK (Homo sapiens, UniProt Q16611).
T2 construct: made in house
T2 sequence (Q16611 1-211): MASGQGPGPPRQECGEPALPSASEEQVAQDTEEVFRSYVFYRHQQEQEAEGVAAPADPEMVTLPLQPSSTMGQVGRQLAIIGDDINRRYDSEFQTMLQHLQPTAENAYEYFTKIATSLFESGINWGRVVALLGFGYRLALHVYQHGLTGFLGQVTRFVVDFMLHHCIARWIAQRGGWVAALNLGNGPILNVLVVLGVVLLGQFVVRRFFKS
In words: Competitive fluorescence polarization assay (displacement of BID BH3 SAHB-F). In kind it is binding. From the text:
We also tested the monosubstituted peptides in competitive fluorescence polarization (FP) binding assays, which measure displacement from GST-BAK of BID BH3 stabilized alpha helix of BCL-2 proteins (SAHB) C-terminally tagged with fluorescein and thus informs on peptide binding affinity.
We carried out fluorescence polarization assays, measuring the displacement of the fluorescent peptide BID BH3 SAHB-F from GST-BAK, in 384-well Greiner black polystyrene plates with flat bottom (Sigma-Aldrich). Master mix consisted of 50 mM Tris-HCl pH 7.5, 50 mM KCl, 0.1 mg/mL BSA, 2 mM DTT, 0.005% Tween-20, 10 nM BID BH3 SAHB-F, and 1 µM GST-BAK. We pin transferred peptides using Biomek FX (Beckman Coulter Life Sciences, IN) to achieve final concentration of 500−0.2 µM in 20 µL final volume. We gently centrifuged plates to remove air bubbles for 1 min at 1000 rpm, and incubated them for 60 min at RT. […] Free peptide controls in each plate consisted of only BID BH3 SAHB-F and bound peptide controls containing BID BH3 SAHB-F + GST-BAK. We derived Z’-values using the equation [1 − 3(stdev^L + stdev^H)]/(average^H − average^L), where L is the free peptide control and H is the bound peptide control. […] We processed and visualized data using the software Robust Investigation of Screening Experiments (RISE) developed in house in the Pipeline Pilot platform (Accelrys, v.8.5.0). We performed at least three independent dose-response experiments for each peptide. We estimated IC50 values in RISE and GraphPad Prism v.8.0a.
For orientation: Fluorescence polarisation rises when a labelled molecule tumbles more slowly, as on binding a larger partner.

[2] abbreviates: competitive FP, mean of the experiments (replicated 4-9 times), read-out: IC50 Mean.

Where two headings read alike, the source gives them in different places. Numbered stars: 1 amine (or outer) side, 2 acyl side, 3 side chain; on linkers, the order of the positions; unused ones are H or OH. Bridge positions count the residues as written; N and C are the ends. Square brackets hold non-standard residues; d marks the D form. Peptide text beside a SMILES is read from it. I, II: the chains in the order shown. Actinocin(9to1) = Cc1c2oc3c(C)ccc(C(=O)[*:1])c3nc-2c(C(=O)[*:2])c(N)c1=O; NMeV = CN[C@H](C(=O)O)C(C)C; Sar = CNCC(=O)O

For `Cc1c2oc3c(C)ccc(C(=O)N[C@@H]4C(=O)N[C@H](C(C)C)C(=O)N5CCC[C@H]5C(=O)N(C)CC(=O)N(C)[C@@H](C(C)C)C(=O)O[C@@H]4C)c3nc-2c(C(=O)N[C@@H]2C(=O)N[C@H](C(C)C)C(=O)N3CCC[C@H]3C(=O)N(C)CC(=O)N(C)[C@@H](C(C)C)C(=O)O[C@@H]2C)c(N)c1=O` [ActD] (I: T[dV]P[Sar][NMeV] / II: T[dV]P[Sar][NMeV]; ester I:1-I:C, II:1-II:C; linker I:N-II:N via Actinocin(9to1)), the “AUC ActD” value came out at 753.275 in assay [1] (V74A 3x 15% + ActD 0.5); 847.336 in assay [1] (V74A 3x 15% + ActD 2); 104.738 in assay [1] (V74A 3x 15% + qVD + ActD 2); 679.364 in assay [1] (V74A 4x 15% + ActD 0.5); 932.591 in assay [1] (V74A 4x 15% + ActD 2); 208.982 in assay [1] (V74A 4x 15% + qVD + ActD 0.5). The “AUC ActD” value in assay [1] (V74A 4x 15% + qVD + ActD 2) was 91.8357; in assay [1] (WT 4x 15% + ActD 0.5), 821.8; in assay [1] (WT 4x 15% + ActD 2), 1113.4; in assay [1] (WT 4x 15% + qVD + ActD 0.5), 162.981; in assay [1] (WT 4x 15% + qVD + ActD 2) it was 59.6671.
Consider Ac-EDIIRNIARHLAQWGDSMDRSI-NH2 [W(3)], for which the “AUC for Experiment-1 (Mean)” value on Human BAK-∆TM-His6 (BAK) (1 μM peptide + 50 nM BAK) is on record as 14.061; at Human BAK-∆TM-His6 (BAK) (50 μM peptide + 50 nM BAK) it was 8.5044. Further, the results for the “AUC for Experiment-2 (Mean)” value at Human BAK-∆TM-His6 (BAK) (1 μM peptide + 50 nM BAK) and at Human BAK-∆TM-His6 (BAK) (50 μM peptide + 50 nM BAK) were 9.0873 and 6.7192, respectively. Further, the “AUC for Experiment-3 (Mean)” value is recorded as 8.9347 on Human BAK-∆TM-His6 (BAK) (1 μM peptide + 50 nM BAK) and 7.8089 on Human BAK-∆TM-His6 (BAK) (50 μM peptide + 50 nM BAK). In addition, the EC50 on Human BAK-∆TM-His6 (BAK) is 0.163 ± 0.0053 µM. Besides, on Human BAK-∆TM-His6 (BAK), the “direct BAK activation compared to WT BID BH3” value is recorded as “less direct BAK activation compared to WT BID BH3”. Further, the IC50 at GST-BAK (competitive FP, Experiment-1) was 7.12 µM; at GST-BAK (competitive FP, Experiment-2), 5.471 µM; on GST-BAK (competitive FP, Experiment-3) it was 7.795 µM; at GST-BAK (competitive FP, Experiment-4), 5.632 µM; at GST-BAK (competitive FP, Experiment-5), 5.62 µM; on GST-BAK (competitive FP, Experiment-6), 7.05 µM. Further, the IC50 on GST-BAK (competitive FP, Experiment-7) came out at 5.661 µM; on GST-BAK (competitive FP, Experiment-8) it was 7.109 µM; on GST-BAK (competitive FP, Experiment-9), 8.02 µM; on GST-BAK (setting [2]), 6.6 µM.
Consider `CC[C@H](C)[C@H](NC(=O)[C@H](CC(N)=O)NC(=O)[C@H](CCCNC(=N)N)NC(=O)[C@@H](NC(=O)[C@@H](NC(=O)[C@H](CC(=O)O)NC(=O)[C@H](CCC(=O)O)NC(C)=O)[C@@H](C)CC)[C@@H](C)CC)C(=O)N[C@@H](C)C(=O)N[C@@H](CCCNC(=N)N)C(=O)N[C@@H](Cc1c[nH]cn1)C(=O)N[C@@H](CC(C)C)C(=O)N[C@@H](C)C(=O)N[C@@H](CCC(N)=O)C(=O)N[C@H](C(=O)NCC(=O)N[C@@H](CC(=O)O)C(=O)N[C@@H](CO)C(=O)N[C@@H](CCSC)C(=O)N[C@@H](CC(=O)O)C(=O)N[C@@H](CCCNC(=N)N)C(=O)N[C@@H](CO)C(=O)N[C@@H](Cc1c[nH]c2ccccc12)C(N)=O)C(C)C` [W(5)], for which the figures for the “AUC for Experiment-1 (Mean)” value at Human BAK-∆TM-His6 (BAK) (1 μM peptide + 50 nM BAK) and on Human BAK-∆TM-His6 (BAK) (50 μM peptide + 50 nM BAK) were 15.613 and 10.056, respectively. Also, the “AUC for Experiment-2 (Mean)” value at Human BAK-∆TM-His6 (BAK) (1 μM peptide + 50 nM BAK) came out at 13.293; on Human BAK-∆TM-His6 (BAK) (50 μM peptide + 50 nM BAK) it was 8.1041. In addition, the “AUC for Experiment-3 (Mean)” value at Human BAK-∆TM-His6 (BAK) (1 μM peptide + 50 nM BAK) amounted to 17.537; at Human BAK-∆TM-His6 (BAK) (50 μM peptide + 50 nM BAK), 9.4463. Also, the EC50 on Human BAK-∆TM-His6 (BAK) came to 0.11 ± 0.0577 µM. The IC50 at GST-BAK (competitive FP, Experiment-1) was found to be 10.88 µM; on GST-BAK (competitive FP, Experiment-2), 9.859 µM; at GST-BAK (competitive FP, Experiment-3), 9.959 µM; at GST-BAK (competitive FP, Experiment-4), 6.417 µM; at GST-BAK (competitive FP, Experiment-5) it was 8.231 µM; on GST-BAK (competitive FP, Experiment-6), 7.397 µM. Besides, the 50% inhibitory concentration (IC50) at GST-BAK (competitive FP, Experiment-7) was 10.36 µM; at GST-BAK (competitive FP, Experiment-8), 8.244 µM; at GST-BAK (competitive FP, Experiment-9), 7.774 µM; at GST-BAK (setting [2]), 8.8 µM.
Regarding Ac-EDIIRNIARHLAQVGDSYDRSI-NH2 [Y(4)], at Human BAK-∆TM-His6 (BAK) (1 μM peptide + 50 nM BAK), the “AUC for Experiment-1 (Mean)” value came to 22.669, the “AUC for Experiment-2 (Mean)” value came to 26.226 and the “AUC for Experiment-3 (Mean)” value worked out at 23.05. Also, on Human BAK-∆TM-His6 (BAK) (50 μM peptide + 50 nM BAK), the “AUC for Experiment-1 (Mean)” value is 21.941, the “AUC for Experiment-2 (Mean)” value came out at 27.175 and the “AUC for Experiment-3 (Mean)” value is on record as 24.539. For the same compound, at Human BAK-∆TM-His6 (BAK), the EC50 came to 0.213 ± 0.0082 µM and the “direct BAK activation compared to WT BID BH3” value was “gain in direct BAK activation compared to WT BID BH3”. For the same compound, the IC50 on GST-BAK (displacement of 10 nM BID BH3 SAHB-fluorescein from 1 µM GST-BAK, peptide 500−0.2 µM, 60 min RT, mean ± SD, n = 9 experiments, read-out: IC50 FP) was 6.9 ± 5 µM.

By EC50 is commonly meant the concentration that produces a half-maximal response. Broadly, the IC50 is the concentration that inhibits the measured activity by half.
